The text below walks through data of PMC2666074 (Biochemistry, 2008).

Ends that are not written are not given here. Peptide text beside a SMILES is read from it.

For experiment [1], the target named is T1, S100A6 (Oryctolagus cuniculus, UniProt P30801). The experiment is classed as binding, rabbit. The following applies: 25 °C, pH 7.0, 10 mM Ca^2+; for heat of binding in ITC: no affinity could be measured.
The target in experiment [2] is T1, S100A6. The experiment is described as follows: NMR titration / chemical shift perturbation, SIP. The experiment is classed as binding, rabbit. The following applies: 30 °C.
The subject of the next experiment is SCF-TBL1 E3 ligase. The following applies: SGS domain mutant of SIP; cited from earlier work.
Experiment [3] has as its system S100A6. The following applies: cited from earlier work.

Take `CC[C@H](C)[C@H](NC(=O)[C@H](CCCCN)NC(=O)[C@H](CCCCN)NC(=O)[C@H](CC(C)C)NC(=O)[C@@H](NC(=O)[C@H](CC(N)=O)NC(=O)[C@H](CCSC)NC(=O)[C@H](CC(C)C)NC(=O)CNC(=O)[C@H](CCC(=O)O)NC(=O)[C@H](CO)NC(=O)[C@H](CO)NC(=O)CNC(=O)[C@@H]1CCCN1C(=O)CN)C(C)C)C(=O)N[C@@H](Cc1ccc(O)cc1)C(=O)N[C@@H](CCC(=O)O)C(=O)N[C@@H](CC(=O)O)C(=O)NCC(=O)O` [SIP(189–203)] (H-GPGSSEGLMNVLKKIYEDG-OH): the “reduction of S100A6 binding affinity” value at S100A6 [1] (ITC, SIP fragment vs SIP(189–219)) is reported as 4 fold. For `CC[C@H](C)[C@H](NC(=O)[C@H](CCCCN)NC(=O)[C@H](CCCCN)NC(=O)[C@H](CC(C)C)NC(=O)[C@@H](NC(=O)[C@H](CC(N)=O)NC(=O)[C@H](CCSC)NC(=O)[C@H](CC(C)C)NC(=O)CNC(=O)[C@H](CCC(=O)O)NC(=O)[C@H](CO)NC(=O)[C@H](CO)NC(=O)CNC(=O)[C@@H]1CCCN1C(=O)CN)C(C)C)C(=O)N[C@@H](Cc1ccc(O)cc1)C(=O)N[C@@H](CCC(=O)O)C(=O)N[C@@H](CC(=O)O)C(=O)NCC(=O)N[C@@H](CC(=O)O)C(=O)N[C@@H](CC(=O)O)C(=O)N[C@@H](CC(=O)O)C(=O)N[C@@H](CCSC)C(=O)N[C@@H](CCCCN)C(=O)N[C@@H](CCCNC(=N)N)C(=O)N[C@H](C(=O)N[C@H](C(=O)N[C@@H](CC(N)=O)C(=O)N[C@@H](CCCCN)C(=O)N[C@@H](C)C(=O)N[C@@H](Cc1c[nH]c2ccccc12)C(=O)N[C@H](C(=O)N[C@@H](CCC(=O)O)C(=O)N[C@@H](CO)C(=O)N[C@@H](CCCNC(=N)N)C(=O)O)C(C)C)[C@@H](C)CC)[C@@H](C)O` [SIP(189–219)] (H-GPGSSEGLMNVLKKIYEDGDDDMKRTINKAWVESR-OH), at S100A6 [2] (15N-1H HSQC, pH 6.5, 10 mM Ca^2+), the “exchange regime of the interaction (NMR titration)” value was “intermediate-fast exchange regime”. Also, on S100A6 [2] (15N-labeled S100A6 0.1 mM, 50 mM Tris pH 6.5, 10 mM Ca^2+), the “binding stoichiometry by NMR” value was “two SIP molecules are symmetrically bound to the S100A6 dimer”. In the case of E217K: SGS domain mutant of SIP, in the experiment on SCF-TBL1 E3 ligase, the “function of the E3 ligase, in words” value is listed as “disrupt the function of the E3 ligase”. “SIP L196A: full length SIP construct, substitution of Leu196 for Ala”: the “heat of binding in ITC” value with S100A6 [1] is “did not produce detectable heat changes”.

For the compound “SIP(203–219): SIP fragment for second putative helix (GDDDMKRTINKAWVESR; not fully specified)”, in the experiment with S100A6 [1], the “heat of binding in ITC” value is “did not produce any observable heat of binding”. Consider “isolated SGS domain fragment: intrinsically disordered SGS (Sgt1 specific) domain (E178-F229) (EKPSYDTEADPSEGLMNVLKKIYEDGDDDMKRTINKAWVESREKQAREDTEF; left off: His-tag, N-terminal, cleaved)”, for which the “S100A6 binding affinity, in words” value with S100A6 [1] (ITC, compared with full-length SIP / SIP-SGS) was “very similar S100A6 binding affinities”. Moreover, the “Ca^2+ dependence of S100A6 binding” value in the experiment with S100A6 [3] is “strictly Ca^2+ dependent”.
